These results are taken from paper PMC10783114, “Establishment of a screening platform based on human coronavirus OC43 for the identification of microbial natural products with antiviral activity” (Microbiology Spectrum, 2023).

Where two headings read alike, the source gives them in different places. Non-standard residues stand in square brackets, D forms with d. Residues, ends and D or L forms follow the SMILES beside them. dLac(3-vinyl) = C=CC[C@@H](O)C(=O)O; dHica = CC(C)C[C@@H](O)C(=O)O; NMeV = CN[C@H](C(=O)O)C(C)C; NMeA = CN[C@@H](C)C(=O)O; βAla = NCCC(=O)O

The test system of data set [1] is HCoV-OC43. The data set is described as follows: Resazurin-based CPE inhibition assay in HCoV-OC43-infected MRC-5 cells. The format is cell-based, Human betacoronavirus OC43. The note with it: for antiviral activity against HCoV-OC43 infection in MRC-5 cells (in words): tested in both assays (CPE inhibition and HCS).
Data set [2] has as its system HCoV-OC43. Kind of data set: High-content screening assay, anti-OC43 immunostaining of infected MRC-5 cells. The format is cell-based, Human betacoronavirus OC43.
Data set [3] deals with HCoV-OC43. Kind of data set: RT-qPCR of extracellular HCoV-OC43 RNA in culture supernatants. Format: cell-based, Human betacoronavirus OC43. The note with it: 72 h incubation. The protocol:
Viral RNA from supernatants was purified using the Macherey-Nagel Nucleospin RNA Kit. RT-qPCR was performed in a single step using the One-Step TB Green PrimeScript RT-PCR Kit II (Takara Bio). The HCoV-OC43 nucleocapsid gene was amplified with the following primers: the forward primer 5′ […]-3′ and the reverse primer 5′ […]-3′ ([27]). A standard curve was generated with purified HCoV-RNA (Vircell).

The subject of data set [4] is MRC-5 cells. The data set is described as follows: Resazurin cytotoxicity assay in non-infected MRC-5 cells. The note with it: MRC-5 cells. Background: Alamar Blue is a resazurin reagent that responds to reducing activity.
Test in data set [5]: as above
The following applies: human.

Data set [6] concerns HCoV-OC43. Further details: method as in PMID 30918074. The note with it: mouse model ref 29; cited from earlier work.
A short description of data set [7]: in vitro. The following applies: human.
Data set [8] has as its system MERS. The note with it: marmosets infected with MERS ref 35; cited from earlier work.
Data set [9] concerns MRC-5 cells.
Where [10] appears, read: Betacoronavirus 1, OC43, MRC5, read-out: EC50 (HCS assay).
Setting [11] is: CC50, non-infected MRC-5 cells, 96 h incubation, resazurin.
[12] abbreviates: Betacoronavirus 1, MRC5, MRC-5 infected with HCoV-OC43 at 0.1 MOI, 96 h with drug, 5 days post-infection, resazurin readout, read-out: EC50 (CPE inhibition assay).
Where [13] appears, read: Betacoronavirus 1, OC43, MRC5, infected MRC-5, 72 h incubation with drug, 4 days post-infection, read-out: EC50 (HCS assay).

With `CCN(CC)CCCC(C)Nc1ccnc2cc(Cl)ccc12` (stereo not drawn) [Chloroquine, chloroquine], the EC50 in data set [1] (Betacoronavirus 1, OC43, MRC5, read-out: EC50 (CPE inhibition assay)) was found to be 6.22 µM; in [2] (setting [10]) it was 1.23 µM.
Consider `O=C1OCC(Cc2ccccc2)=C1c1ccccc1` [Gymnoascolide A, gymnoascolide A], for which the “antiviral activity against HCoV-OC43 infection in MRC-5 cells (in words)” value (shortened to “antiviral activity … (in words)”) in [1] is reported as “showed activity”. Moreover, the EC50 in [2] (infected MRC-5, 72 h incubation with drug, 4 days post-infection, read-out: EC50 (HCS assay)) worked out at 20.6 µM. Further, in [3] (40 µM), the “HCoV-OC43 RNA level in supernatant” value is on record as “under 20%”. The “HCoV-OC43 RNA level (viral load) in supernatant” value in data set [3] (80 µM) is listed as “below 5%”. Moreover, in data set [4], the “toxicity against MRC-5 host cells (in words)” value is recorded as “no evident toxicity”.
Turning to `C=CC[C@H]1OC(=O)CCNC(=O)[C@H](C)N(C)C(=O)[C@H](C(C)C)N(C)C(=O)[C@H]([C@@H](C)CC)NC(=O)[C@@H]2CCCN2C1=O` [Destruxin A, destruxin A] (cyclo([dLac(3-vinyl)]PI[NMeV][NMeA][βAla])), the “antiviral activity … (in words)” value in data set [1] is given as “did not have an effect”; in data set [1] (listed as destruxin A), “non-active”. Besides, the CC50 at 96 h in data set [5] (setting [11]) was ~10 µM.
With `COc1c(C)c2c(c(O)c1C/C=C(\C)CCC(=O)OCCN1CCOCC1)C(=O)OC2` [Mycophenolate mofetil, mycophenolate mofetil], the EC50 in data set [1] (setting [12]) was 20.7 µM; in [2] (setting [13]), 1.91 µM. In addition, in data set [1], the “antiviral activity … (in words)” value is reported as “showed activity”. Moreover, the “antiviral activity against HCoV-OC43 in a mouse model” value in [6] is “no antiviral activity”. Moreover, in data set [7], the CC50 was > 200 µM. Further, the “side effects in vivo” value in [8] is reported as “severe side effects”.
Take `CC[C@H](C)[C@@H]1NC(=O)[C@@H]2CCCN2C(=O)[C@@H](CC(C)C)OC(=O)CCNC(=O)[C@H](C)N(C)C(=O)[C@H](C(C)C)N(C)C1=O` [Destruxin B, destruxin B] (cyclo([dHica]PI[NMeV][NMeA][βAla])): the “antiviral activity … (in words)” value in data set [1] is listed as “did not have an effect”; in data set [1] (listed as destruxin B), “non-active”. Further, the CC50 at 96 h in data set [5] (setting [11]) is ~10 µM.
For `NC(=O)c1ncn([C@@H]2O[C@H](CO)[C@@H](O)[C@H]2O)n1` [Ribavirin, ribavirin], the selectivity index in data set [1] is listed as ~8. For the same molecule, the concentration for a half-maximal effect (EC50) turned out to be 118 µM in [1] (setting [12]) and 92.1 µM in data set [2] (setting [10]). For the same molecule, in [1], the “antiviral activity … (in words)” value was “showed activity”. The CC50 at 96 h in data set [5] (non-infected MRC-5 cells) is > 800 µM.
For the molecule `CCCCC/C=C\C/C=C\CCCCCCCC(=O)O` [Linoleic acid, linoleic acid], the concentration for a half-maximal effect (EC50) in data set [1] (setting [12]) turned out to be 25.6 µM; in [2] (setting [13]), 18.3 µM. In data set [1], the “antiviral activity … (in words)” value is “showed activity”. For the same molecule, in [3] (15 µM), the “HCoV-OC43 RNA load in supernatant” value is “below 50%”. Moreover, the “toxicity against MRC-5 host cells (in words)” value in data set [9] is recorded as “no evident toxicity”. For the same molecule, the CC50 at 96 h in [7] is > 40 µM.

Broadly, the EC50 is the concentration at which the effect is half-maximal.
